{
  "source": "paper PMC3288053",
  "about": "(PLoS ONE, 2012)",
  "key": {"[1]": {"biological_target": "interaction of RXRα with SRC1 (Homo sapiens, UniProt P19793)", "sequence (P19793 223-462 limits assumed)": "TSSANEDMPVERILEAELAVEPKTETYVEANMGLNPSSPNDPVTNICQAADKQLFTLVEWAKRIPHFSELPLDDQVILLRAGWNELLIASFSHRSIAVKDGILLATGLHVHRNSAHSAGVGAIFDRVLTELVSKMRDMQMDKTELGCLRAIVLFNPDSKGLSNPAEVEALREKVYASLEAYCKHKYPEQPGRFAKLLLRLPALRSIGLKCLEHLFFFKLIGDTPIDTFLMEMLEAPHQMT", "sequence (Q15788 613-773 partner limits assumed)": "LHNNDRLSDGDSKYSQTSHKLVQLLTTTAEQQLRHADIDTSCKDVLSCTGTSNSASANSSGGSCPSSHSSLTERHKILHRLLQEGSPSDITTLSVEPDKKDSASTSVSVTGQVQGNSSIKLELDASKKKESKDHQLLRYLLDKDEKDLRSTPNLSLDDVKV", "test": "Yeast two-hybrid assay", "details": "AH109 strain, 48 hours"}, "RXRα:RXRα": {"biological_target": "T1, RXRα:RXRα (Homo sapiens, UniProt P19793)", "T1 construct": "expressed in transfected cells; host or cells: HEK293", "T1 sequence (P19793 whole entry)": "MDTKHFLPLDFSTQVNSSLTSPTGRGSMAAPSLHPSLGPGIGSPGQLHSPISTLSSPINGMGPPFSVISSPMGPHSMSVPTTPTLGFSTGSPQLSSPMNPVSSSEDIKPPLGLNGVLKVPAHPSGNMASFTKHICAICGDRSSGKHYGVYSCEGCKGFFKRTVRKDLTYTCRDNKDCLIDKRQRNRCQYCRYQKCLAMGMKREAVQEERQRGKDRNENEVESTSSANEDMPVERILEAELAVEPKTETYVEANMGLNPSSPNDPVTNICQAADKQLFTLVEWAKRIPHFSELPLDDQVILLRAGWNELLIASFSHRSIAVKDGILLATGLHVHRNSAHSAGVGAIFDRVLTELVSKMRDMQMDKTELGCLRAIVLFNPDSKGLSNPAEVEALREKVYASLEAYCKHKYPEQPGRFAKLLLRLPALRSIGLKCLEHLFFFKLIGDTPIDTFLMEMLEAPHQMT", "test": "Transient transfection luciferase assay in HEK293 cells (RXRE)", "type": "cell-based", "details": "HEK293, 24 h", "experimental": "HEK293 cells are transiently transfected by Lipo2000 respectively with RXRα, PPARγ, FXR, and LXRα plasmids plus pGL3-RXRE luciferase vector and renilla luciferase vector for 5 hours. Cells are then incubated with indicated concentrations of compounds for another 24 h and finally lysed. Luciferase activities are measured using Dual Luciferase Assay System kit. Rut dose-dependently activates (a) RXRα:RXRα and (b) PPARγ:RXRα activities. Rut has no effects on (c) FXR: RXRα and (d) LXRα:RXRα activities. Data are presented as means ± s.e.m (*P<0.05, **P<0.01) from three independent experiments.\nHEK293 cells are transfected with luciferase reporter plus Renilla luciferase vector and other plasmids if needed for 5 hours, and cells are then incubated with indicated concentrations of compounds for another 24 h. Finally cells are lysed and luciferase activities are measured using Dual Luciferase Assay System kit. The results are presented as the fold activation relative to untreated cells after normalization with Renilla luciferase values. Each experiment is repeated at least twice, with each sample analyzed in triplicates."}, "SRC1_613–773": {"biological_target": "T2, SRC1_613–773 (Homo sapiens, UniProt Q15788)", "T2 construct": "The plasmid pET15b-SRC1_613–773 is constructed with NdeI-BamHI sites; His-tag (N); made in house; host or cells: E. coli BL21 (DE3)", "T2 sequence (Q15788 613-773)": "as the sequence (Q15788 613-773 partner limits assumed) above", "test": "SPR (Biacore) binding assay, control", "details": "SPR control experiment", "experimental": "(§1) Binding affinities of Rut towards proteins are analyzed using SPR technology based Biacore 3000 instrument (GE Healthcare). In the assay, proteins are immobilized to CM5 chips using a standard amine-coupling procedure (Biacore manual). The proteins to be covalently bound to the chips are diluted in 10 mM sodium acetate buffer (pH4.5) to a final concentration of 0.10 mg/ml. Before experiments, baseline is equilibrated with a continuous flow of running buffer (10 mM HEPES, 150 mM NaCl, 3 mM EDTA, and 0.005% (v/v) surfactant P20, pH7.4) for 2 hours. Subsequently, Rut with a gradient of concentrations is injected to the channels at a flow rate of 20 µL/min for 60 seconds, followed by disassociation for 120 seconds. The 1∶1 Langmuir binding fitting model in BIAevaluation software version 3.1 (Biacore) is used to determine the equilibrium dissociation constants (K Ds) of compounds. For SRC1 recruitment assay, purified SRC1_613–773 is immobilized to a CM5 chip. Different concentrations of PPARγ-LBD or RXRα-LBD are injected to the channel at a flow rate of 20 µL/min for 60 s, followed by disassociation for 120 s. To further detect the effects of Rut on PPARγ-LBD/SRC1 or RXRα-LBD/SRC1 interactions, 1 µM PPARγ-LBD or RXRα-LBD is incubated with Rut (16.8–100 µM) for 1 hour, and then injected onto the chip."}, "GLUT4 promoter": {"test_system": "GLUT4 promoter", "test": "GLUT4 promoter-luciferase reporter assay in 3T3-L1 adipocytes", "type": "cell-based", "details": "pre-treated 24 hours", "experimental": "(a) Chemical structure of (+)-Rutamarin. […] Green fluorescence represents the total GLUT4, and red fluorescence depicts the translocated GLUT4 to cell membrane. (d) Insulin (170 nM)-induced GLUT4 translocation of CHO-K1/GLUT4 cells treated with compound-2 (C2, 10 µM), pervanadate (Pervan, 100 µM) and Rut (5, 10, 20 µM) for 5 minutes. (e) Immunofluorescence with antibody against GLUT4 (green), DAPI (blue) in 3T3-L1 adipocytes. GLUT4 translocation is detected either in the insulin (17 nM) stimulated 3T3-L1 adipocytes for 5 minutes, or pre-treated with Rut (20 µM) for 8 hours and then stimulated with insulin (17 nM) for 5 minutes. (f) Rut potently stimulates GLUT4 promoter activity in 3T3-L1 adipocytes (20 µM, Rut was pre-treated in the cells for 24 hours. Reporter gene is GLUT4 promoter-luciferase plasmid together with Renilla luciferase expression vector as a control). (g) H^3-glucose uptake assay in fully differentiated 3T3-L1 adipocytes treated with C2 (10 µM) and different doses of Rut (5–25 µM). Treatment of Rut for 30 minutes improves the insulin (17 nM)-stimulated glucose uptake. (h) GLUT4 expression is determined by western blotting with an antibody against GLUT4 in 3T3-L1 adipocytes treated with Rut (20 µM) for 48 hours. Data are presented as means ± s.e.m (*P<0.05, **P<0.01) from three independent experiments."}, "PPARγ-LBD": {"biological_target": "T3, PPARγ-LBD (Homo sapiens, UniProt P37231)", "T3 construct": "pET15b-PPARγ-LBD202–477; His-tag (N); made in house; host or cells: E. coli BL21 (DE3)", "T3 sequence (P37231 230-505)": "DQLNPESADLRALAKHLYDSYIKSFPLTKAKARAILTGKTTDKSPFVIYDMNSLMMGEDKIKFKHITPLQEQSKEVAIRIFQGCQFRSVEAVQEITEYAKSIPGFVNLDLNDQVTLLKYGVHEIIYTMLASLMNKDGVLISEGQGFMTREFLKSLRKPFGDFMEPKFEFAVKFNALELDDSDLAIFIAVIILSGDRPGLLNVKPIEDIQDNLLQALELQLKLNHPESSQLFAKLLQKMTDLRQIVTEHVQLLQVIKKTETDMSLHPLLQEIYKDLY", "test": "SPR (Biacore) binding assay", "details": "1:1 Langmuir fitting", "experimental": "as §1, with “For SRC1 recruitment assay, purified SRC1_613–773 is immobilized to a CM5 chip.” left out, “s.” for “s. To further detect the effects of Rut on PPARγ-LBD/SRC1 or RXRα-LBD/SRC1 interactions, 1 µM PPARγ-LBD or RXRα-LBD is incubated with Rut (16.8–100 µM) for 1 hour, and then injected onto the chip.”"}, "[2]": {"test_system": "GLUT4 in 3T3-L1 adipocytes", "test": "Western blot of GLUT4 protein level", "type": "cell-based", "details": "Rut 20 µM", "experimental": "Insulin sensitizing effects of Rut are investigated in CHO-K1 and 3T3-L1 adipocytes. After incubation with compounds in serum-free medium for indicated time, cells are stimulated with insulin (170 nM for CHO-K1 cells and 17 nM for 3T3-L1 adipocytes) for 5 min, and the stimulation is stopped by ice-cold PBS. The effect of Rut on insulin signaling is also investigated in CHO-K1 cells. In the assay, cells are stimulated with Rut (20 µM, 8 h) or insulin (170 nM, 5 min), and then lysed on ice. GLUT4 protein level is studied in the differentiated 3T3-L1 adipocytes (the 10th day after MDI stimulation). […] The proteins are resolved by SDS-polyacrylamide gel electrophoresis and electro-transferred to polyvinylidene difluoride membranes. The membrane is blocked by 5% skimmed milk and incubated with antibodies. Proteins are visualized by the ECL detecting system."}},
  "data": [
    {"compound": "C=CC(C)(C)c1cc2cc3c(cc2oc1=O)O[C@H](C(C)(C)OC(C)=O)C3", "note": "[(+)-Rutamarin]", "values": [
      {"measurement": "interaction of SRC1 with RXRα (α-galactosidase activity)", "setting": "[1]", "value": "dose-dependently enhances"},
      {"measurement": "activity of RXR-response element (RXRE)", "setting": "RXRα:RXRα", "value": "dose-dependently enhance"},
      {"measurement": "binding to SRC1", "setting": "SRC1_613–773", "value": "does not bind"},
      {"measurement": "GLUT4 promoter activity", "setting": "GLUT4 promoter", "value": "dose-dependently induce"},
      {"measurement": "equilibrium dissociation constant KD / binding to PPARγ-LBD", "setting": "PPARγ-LBD", "value": "no binding"},
      {"measurement": "GLUT4 protein level", "setting": "[2]; 8th hour", "value": "no obvious increment"},
      {"measurement": "GLUT4 protein level", "setting": "[2]; 48 hours", "value": "potently increases"}
    ]}
  ]
}
